Seven molecules from patent US12486233B2 (Exelixis, Inc., priority 2014, dated 2025) can be followed below.

Data set [1] can be described thus: Dynamic Vapor Sorption (DVS): hygroscopicity and sorption properties. The class given is physicochemical. The conditions noted are these: for hygroscopicity classification: 25° C., European Pharmacopeia classification where stated. How it is done: Dynamic Vapor Sorption (DVS) was performed using a Hiden Analytical Instruments IGAsorp Vapor Sorption Balance. Approximately 30 mg of sample was placed into a wire-mesh Vapor sorption balance pan, loaded into the IGAsorp Vapor sorption balance and held at 25° C.±0.1° C. The sample was subjected to a step profile from 0 to 90% RH at 10% increments, followed by desorption from 80% RH to 0% RH at 10% increments. The equilibrium criterion was set to 99.0% step completion within a minimum of […] and a maximum of 5 hours for each increment. The weight change during the sorption cycle was monitored, allowing for the hygroscopic nature of the sample to be determined. The data collection interval was in seconds.

A short description of data set [2]: physical stability of amorphous material under stress conditions (temperature, relative humidity). The class given is physicochemical. To be noted: 100° C. for 4 days.
Data set [3] can be described thus: permeability (BCS classification) in initial development experiments. Format: in vitro ADME. The conditions noted are these: free base.
Data set [4] in a line: BCS classification / solubility in initial development experiments. The class given is physicochemical. The conditions noted are these: free base; in water.

Consider `COc1cc2nccc(Oc3ccc(NC(=O)C4(C(=O)Nc5ccc(F)cc5)CC4)cc3)c2cc1OC` [Compound 1 Form III, N-{4-[(6,7-dimethoxyquinolin-4-yl)oxy]phenyl}-N′-(4-fluorophenyl) cyclopropane-1,1-dicarboxamide], for which, in data set [1] (DVS), the “weight gain between 0% RH and 80% RH (in words)” value is “very small weight gain”; the hygroscopicity classification entry was “non-hygroscopic”.
Take `COc1cc2nccc(Oc3ccc(NC(=O)C4(C(=O)Nc5ccc(F)cc5)CC4)cc3)c2cc1OC` [Compound 1 Form XXVIII, N-{4-[(6,7-dimethoxyquinolin-4-yl)oxy]phenyl}-N′-(4-fluorophenyl) cyclopropane-1,1-dicarboxamide]: in data set [1] (DVS), the “weight gain between 0% RH and 80% RH (in words)” value is given as “very small weight gain”; the hygroscopicity classification result is recorded as “non-hygroscopic”.
As for `COc1cc2nccc(Oc3ccc(NC(=O)C4(C(=O)Nc5ccc(F)cc5)CC4)cc3)c2cc1OC` [Compound 1 Form XXXI, N-{4-[(6,7-dimethoxyquinolin-4-yl)oxy]phenyl}-N′-(4-fluorophenyl) cyclopropane-1,1-dicarboxamide], the “weight lost on drying to 0% RH” value in data set [1] (DVS, sample dried at 0% RH before sorption and desorption) is −7%.
With `COc1cc2nccc(Oc3ccc(NC(=O)C4(C(=O)Nc5ccc(F)cc5)CC4)cc3)c2cc1OC` [Compound 1 Form I, N-{4-[(6,7-dimethoxyquinolin-4-yl)oxy]phenyl}-N′-(4-fluorophenyl) cyclopropane-1,1-dicarboxamide], in data set [1] (DVS), the “weight gain between 40% RH and 90% RH” value is listed as “very small weight gain”; the hygroscopicity classification entry is on record as “non-hygroscopic”. Also, the “stability at higher humidity” value in data set [1] (DVS, 40% RH to 90% RH) was “stable”.
`COc1cc2nccc(Oc3ccc(NC(=O)C4(C(=O)Nc5ccc(F)cc5)CC4)cc3)c2cc1OC` [Compound 1 Amorphous Form, N-{4-[(6,7-dimethoxyquinolin-4-yl)oxy]phenyl}-N′-(4-fluorophenyl) cyclopropane-1,1-dicarboxamide]: in data set [1] (DVS), the “water uptake at 90% RH” value is listed as “approximately 5%” and the hygroscopicity classification result is “hygroscopic”. Also, the “total weight gain between 0% RH and 80% RH” value in data set [1] (DVS, sample dried at 0% RH first) came out at 4 % w/w. In addition, in data set [1] (after the DVS cycle), the “crystallization by XRPD of the sample post DVS” value is “no crystallization had occurred”. In data set [2], the “physical stability to heat stressing” value was “stable”.
As to `COc1cc2nccc(Oc3ccc(NC(=O)C4(C(=O)Nc5ccc(F)cc5)CC4)cc3)c2cc1OC` [Compound 1 Form XXX, N-{4-[(6,7-dimethoxyquinolin-4-yl)oxy]phenyl}-N′-(4-fluorophenyl) cyclopropane-1,1-dicarboxamide], in data set [1] (DVS), the hygroscopicity classification result is given as “hygroscopic”.
With `COc1cc2nccc(Oc3ccc(NC(=O)C4(C(=O)Nc5ccc(F)cc5)CC4)cc3)c2cc1OC` [Compound 1, N-{4-[(6,7-dimethoxyquinolin-4-yl)oxy]phenyl}-N′-(4-fluorophenyl) cyclopropane-1,1-dicarboxamide], the permeability result in data set [3] was “high permeability”. For the same molecule, the solubility result in data set [4] is listed as “low solubility”.
